The text below walks through data of US10087185B2 (Janssen Pharmaceutica NV, priority 2016, dated 2018).

Usually IC50 stands for the concentration that gives 50% inhibition. The pIC50 is −log10 of the IC50, conventionally taken in molar units.

This experiment deals with TARP γ8 dependent AMPA receptor (GRIA1o-CACNG8 fusion construct) (Homo sapiens (Human), UniProt P42261+Q8WXS5). Kind of experiment: Calcium flux assay (FLIPR), inhibition of glutamate response of GluA1o-γ8 channel. The settings on record: HEK293 cells stably expressing GRIA1o-CACNG8 fusion; calcium flux after 15 μM glutamate; negative log of the IC50 in molar. It counts as cell-based. An excerpt: This assay was used to test compounds for their ability to inhibit TARP γ8 dependent AMPA receptor activity. The AMPA receptor is a non-selective cation channel activated by glutamate. […] But, this desensitization is incomplete, and a substantial steady-state current remains in the sustained presence of glutamate (Cho et al. (2007). “Two families of TARP isoforms that have distinct effects on the kinetic properties of AMPA receptors and synaptic currents.” Neuron 55(6): 890-904).
Chain of TARP γ8 dependent AMPA receptor (GRIA1o-CACNG8 fusion construct) (P42261 other isoform, or with tags, fused parts or gaps): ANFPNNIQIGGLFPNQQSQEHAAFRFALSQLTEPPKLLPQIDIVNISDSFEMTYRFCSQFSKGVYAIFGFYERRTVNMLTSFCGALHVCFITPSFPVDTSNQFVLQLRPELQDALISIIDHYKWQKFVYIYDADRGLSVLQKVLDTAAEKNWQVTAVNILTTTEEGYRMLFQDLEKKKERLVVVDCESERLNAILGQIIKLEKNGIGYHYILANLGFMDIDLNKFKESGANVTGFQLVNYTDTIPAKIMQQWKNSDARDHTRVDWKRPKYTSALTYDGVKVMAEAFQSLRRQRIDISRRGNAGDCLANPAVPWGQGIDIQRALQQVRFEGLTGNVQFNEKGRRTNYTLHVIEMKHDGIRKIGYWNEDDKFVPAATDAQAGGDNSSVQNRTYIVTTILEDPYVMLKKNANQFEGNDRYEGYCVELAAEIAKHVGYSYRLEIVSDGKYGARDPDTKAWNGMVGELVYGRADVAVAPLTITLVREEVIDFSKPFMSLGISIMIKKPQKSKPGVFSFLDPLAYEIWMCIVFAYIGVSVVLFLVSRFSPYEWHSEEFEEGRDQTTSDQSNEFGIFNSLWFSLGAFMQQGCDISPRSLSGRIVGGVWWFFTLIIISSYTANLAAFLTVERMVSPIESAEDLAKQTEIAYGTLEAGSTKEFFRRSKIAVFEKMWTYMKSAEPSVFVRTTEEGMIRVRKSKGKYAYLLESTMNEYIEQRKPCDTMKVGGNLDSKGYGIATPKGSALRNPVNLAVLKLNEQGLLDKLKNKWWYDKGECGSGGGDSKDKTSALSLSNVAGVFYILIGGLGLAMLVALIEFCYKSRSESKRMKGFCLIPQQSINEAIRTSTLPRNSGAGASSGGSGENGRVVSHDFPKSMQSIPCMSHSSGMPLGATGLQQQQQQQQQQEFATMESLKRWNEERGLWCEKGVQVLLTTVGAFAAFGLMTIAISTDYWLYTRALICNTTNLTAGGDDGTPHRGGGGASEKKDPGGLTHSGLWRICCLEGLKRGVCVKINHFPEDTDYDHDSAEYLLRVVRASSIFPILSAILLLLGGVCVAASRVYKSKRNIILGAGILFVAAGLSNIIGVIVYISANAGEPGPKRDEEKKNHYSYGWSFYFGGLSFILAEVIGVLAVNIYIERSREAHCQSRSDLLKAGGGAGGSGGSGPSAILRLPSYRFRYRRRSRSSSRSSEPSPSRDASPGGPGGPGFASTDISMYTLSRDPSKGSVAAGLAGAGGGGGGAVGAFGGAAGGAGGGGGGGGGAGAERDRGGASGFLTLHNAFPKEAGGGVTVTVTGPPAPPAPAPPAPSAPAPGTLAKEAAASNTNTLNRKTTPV
An in vitro assay was used to determine the potency of test compounds as inhibitors of the glutamate response of the channel formed by GluA10-γ8. To ensure a 1:1 stoichiometry of GluA1o and γ8 subunits in the expressed channel, a fusion of the cDNAs for GRIA1o and CACNG8 was used. Following Shi et al (2009) “The stoichiometry of AMPA receptors and TARPs varies by neuronal cell type.” Neuron 62(5): 633-640), the C-terminus of the cDNA for GRIA1o was fused to the N-terminus of the cDNA for γ8. The linker sequence was […]. Channels expressed with this construct appear to have similar properties to channels formed by co-expression of GRIA1o with an excess of CACNG8 (Shi et al. 2009). A clonal cell line in HEK293 cells stably expressing this construct, with a geneticin selection marker, was generated for use in this assay.
Cell expressing the GRIA1o-CACNG8 fusion construct were grown in a monolayer in 96- or 384-well microtiter plates. They were washed with assay buffer (135 mM NaCl, 4 mM KCl, 3 mM CaCl2, 1 mM MgCl2, 5 mM glucose, 10 mM HEPES, pH 7.4, 300 mOs) using a Biotek EL405 plate washer. The cells were then loaded with a calcium-sensitive dye (Calcium-5 or Calcium-6, Molecular Devices) and the test compounds at a range of concentrations. Calcium flux following the addition of 15 μM glutamate was monitored using a Molecular Devices FLIPR Tetra.
The fluorescence in each well was normalized to the fluorescence of negative and positive control wells. The negative control wells had no added compounds, and the positive control wells had been incubated with 10 μM CP465022 (a non-subtype-selective AMPA receptor antagonist) (Lazzaro et al. (2002). “Functional characterization of CP-465,022, a selective, noncompetitive AMPA receptor antagonist.” Neuropharmacology 42(2): 143-153). The responses to glutamate as functions of the test compound concentrations were fitted to a four-parameter logistic function. The fitted parameter corresponding to the midpoint was taken to be the potency of inhibition of the compound. The data in Table 4 below illustrates the observed potency for the compounds described herein. pIC50 refers to the negative log of the IC50 in molar.
On the technique in general: A change in cytosolic calcium serves as a functional read-out for many receptors and channels.
For `FC(F)(F)c1ccc2nc(C3CC3)nn2c1-c1cc(Cl)c2[nH]ncc2c1` [Example 38, 5-(7-Chloro-1H-indazol-5-yl)-2-cyclopropyl-6-(trifluoromethyl)-[1,2,4]triazolo[1,5-a]pyridine], the IC50 was 0.126 nM.

With `CCc1nc2c(F)cc(C(F)(F)F)c(-c3cc(Cl)c4c(c3)CC(=O)N4)n2n1` [Example 32, 7-Chloro-5-[2-ethyl-8-fluoro-6-(trifluoromethyl)-[1,2,4]triazolo[1,5-a]pyridin-5-yl]indolin-2-one], the IC50 was 2 nM. Turning to `O=c1[nH]c2ccc(-c3c(C(F)(F)F)ccc4nc(C(F)F)nn34)cc2s1` [Example 54, 6-(2-(Difluoromethyl)-6-(trifluoromethyl)-[1,2,4]triazolo[1,5-a]pyridin-5-yl)benzo[d]thiazol-2(3H)-one], the IC50 was 0.794 nM. Still for that read-out and setting: for `FC(F)c1ccc2cc(C(F)(F)F)nn2c1-c1cc(Cl)c2[nH]ncc2c1` [Example 120, 7-(7-Chloro-1H-indazol-5-yl)-6-(difluoromethyl)-2-(trifluoromethyl)pyrazolo[1,5-a]pyridine] the value was 0.0158 nM; for `COc1ccc2nc(C(F)F)nn2c1-c1cc(C(F)(F)F)c2[nH]ncc2c1` [Example 15, 2-(Difluoromethyl)-6-methoxy-5-(7-(trifluoromethyl)-1H-indazol-5-yl)-[1,2,4]triazolo[1,5-a]pyridine], 2 nM. As to `CCc1nc2ccc(C(F)F)c(-c3cc(C)c4c(c3)CC(=O)N4)n2n1` [Example 47, 5-(6-(Difluoromethyl)-2-ethyl-[1,2,4]triazolo[1,5-a]pyridin-5-yl)-7-methylindolin-2-one], the IC50 is 3.98 nM. Same read-out and setting: the same measure for `CCCc1nc2c(C)cc(C(F)F)c(-c3cc(C)c4[nH]ncc4c3)n2n1` [Example 95, 6-(Difluoromethyl)-8-methyl-5-(7-methyl-1H-indazol-5-yl)-2-propyl-[1,2,4]triazolo[1,5-a]pyridine]: 3.16 nM. Consider `FC(F)(F)c1ccc2cc(C3CC3)nn2c1-c1cc(Cl)c2[nH]ncc2c1` [Example 118, 7-Chloro-5-(2-cyclopropyl-6-(trifluoromethyl)pyrazolo[1,5-a]pyridin-7-yl)-1H-indazole], for which the pIC50 is reported as 10.2. For the compound `CCCc1nc2c(C)cc(C(F)(F)F)c(-c3cc(C)c4[nH]ncc4c3)n2n1` [Example 84, 8-Methyl-5-(7-methyl-1H-indazol-5-yl)-2-propyl-6-(trifluoromethyl)-[1,2,4]triazolo[1,5-a]pyridine], the IC50 was 1 nM. `Cc1nc2ccc(C(F)(F)F)c(-c3cc(C)c4[nH]ncc4c3)n2n1` [Example 22, 2-Methyl-5-(7-methyl-1H-indazol-5-yl)-6-(trifluoromethyl)-[1,2,4]triazolo[1,5-a]pyridine]: the IC50 was 12.6 nM. With `O=C1Cc2cc(-c3c(C(F)(F)F)ccc4cc(C(F)(F)F)nn34)cc(Cl)c2N1` [Example 66, 5-(2,6-Bis(trifluoromethyl)pyrazolo[1,5-a]pyridin-7-yl)-7-chloroindolin-2-one], the IC50 is 0.0126 nM. As to `CCc1cc(C(F)(F)F)c(-c2cc(C)c3[nH]ncc3c2)n2nc(C3CC3)nc12` [Example 81, 2-Cyclopropyl-8-ethyl-5-(7-methyl-1H-indazol-5-yl)-6-(trifluoromethyl)-[1,2,4]triazolo[1,5-a]pyridine], the IC50 is 0.501 nM. In the case of `CCOc1nc2c(C)cc(C(F)(F)F)c(-c3cc(Cl)c4[nH]ncc4c3)n2n1` [Example 117, 5-(7-Chloro-1H-indazol-5-yl)-2-ethoxy-8-methyl-6-(trifluoromethyl)-[1,2,4]triazolo[1,5-a]pyridine], the IC50 was 2.51 nM. On to `Cc1cc(C(F)F)c(-c2cc(Cl)c3[nH]ncc3c2)n2nc(C(F)(F)F)cc12` [Example 125, 7-(7-Chloro-1H-indazol-5-yl)-6-(difluoromethyl)-4-methyl-2-(trifluoromethyl)pyrazolo[1,5-a]pyridine], for which the IC50 is 0.1 nM. On to `Cc1nc2ccc(C(F)(F)F)c(-c3cc(C)c4c(c3)CC(=O)N4)n2n1` [Example 24, 7-Methyl-5-(2-methyl-6-(trifluoromethyl)-[1,2,4]triazolo[1,5-a]pyridin-5-yl)indolin-2-one], for which the IC50 was 20 nM. As to `Cc1cc(-c2c(-c3ccc(F)cc3)ccc3nc(C(F)(F)F)nn23)cc2cn[nH]c12` [Example 55, 6-(4-Fluorophenyl)-5-(7-methyl-1H-indazol-5-yl)-2-(trifluoromethyl)-[1,2,4]triazolo[1,5-a]pyridine], the IC50 was 0.0398 nM. Turning to `CCc1cc(C(F)F)c(-c2cc(Cl)c3[nH]ncc3c2)n2nc(C3CC3)nc12` [Example 93, 5-(7-Chloro-1H-indazol-5-yl)-2-cyclopropyl-6-(difluoromethyl)-8-ethyl-[1,2,4]triazolo[1,5-a]pyridine], the IC50 was 0.158 nM. Take `Cc1cc(-c2c(C(F)(F)F)cc(C)c3nc(C(F)(F)F)nn23)cc2c1NC(=O)C2` [Example 105, 7-Methyl-5-(8-methyl-2,6-bis(trifluoromethyl)-[1,2,4]triazolo[1,5-a]pyridin-5-yl)indolin-2-one]: the IC50 was 0.316 nM. With `CC(F)(F)c1nc2ccc(C(F)(F)F)c(-c3cc(Cl)c4[nH]ncc4c3)n2n1` [Example 42, 5-(7-Chloro-1H-indazol-5-yl)-2-(1,1-difluoroethyl)-6-(trifluoromethyl)-[1,2,4]triazolo[1,5-a]pyridine], the IC50 is 0.1 nM. Still for that read-out and setting: the same measure for `CCc1nc2c(C)cc(C(F)(F)F)c(-c3cc(Cl)c4[nH]ncc4c3)n2n1` [Example 35, 5-(7-Chloro-1H-indazol-5-yl)-2-ethyl-8-methyl-6-(trifluoromethyl)-[1,2,4]triazolo[1,5-]pyridine]: 0.398 nM; for `CCCc1nc2c(Cl)cc(C(F)(F)F)c(-c3cc(Cl)c4[nH]ncc4c3)n2n1` [Example 96, 8-Chloro-5-(7-chloro-1H-indazol-5-yl)-2-propyl-6-(trifluoromethyl)-[1,2,4]triazolo[1,5-a]pyridine]: 0.398 nM; for `Cc1cc(C(F)F)c(-c2cc(Cl)c3[nH]ncc3c2)n2nc(C(F)(F)F)nc12` [Example 77, 5-(7-Chloro-1H-indazol-5-yl)-6-(difluoromethyl)-8-methyl-2-(trifluoromethyl)-[1,2,4]triazolo[1,5-a]pyridine]: 0.251 nM. Take `COc1ccc2nc(C(F)F)nn2c1-c1cc(C)c2[nH]ncc2c1` [Example 14, 2-(Difluoromethyl)-6-methoxy-5-(7-methyl-1H-indazol-5-yl)-[1,2,4]triazolo[1,5-a]pyridine]: the IC50 was 5.01 nM. As to `Cc1cc(C(F)(F)F)c(-c2cc(Cl)c3c(c2)CC(=O)N3)n2nc(C3CC3)nc12` [Example 75, 7-Chloro-5-(2-cyclopropyl-8-methyl-6-(trifluoromethyl)-[1,2,4]triazolo[1,5-a]pyridin-5-yl)indolin-2-one], the IC50 was 0.126 nM. Still for that read-out and setting: for `Cc1nc2ccc(-c3ccc(F)cc3)c(-c3cc(C)c4[nH]ncc4c3)n2n1` [Example 60, 6-(4-Fluorophenyl)-2-methyl-5-(7-methyl-1H-indazol-5-yl)-[1,2,4]triazolo[1,5-a]pyridine] the value was 1.26 nM; for `Cc1cc(-c2c(C(F)(F)F)ccc3cc(C(F)(F)F)nn23)cc2c1NC(=O)C2` [Example 65, 5-(2,6-Bis(trifluoromethyl)pyrazolo[1,5-a]pyridin-7-yl)-7-methylindolin-2-one], 0.0158 nM. Take `CCc1nc2c(F)cc(C(F)(F)F)c(-c3cc(Cl)c4[nH]ncc4c3)n2n1` [Example 31, 5-(7-Chloro-1H-indazol-5-yl)-2-ethyl-8-fluoro-6-(trifluoromethyl)-[1,2,4]triazolo[1,5-a]pyridine]: the IC50 was 1.26 nM.

`Cc1cc(-c2c(-c3cccnc3)ccc3nc(C(F)(F)F)nn23)cc2cn[nH]c12` [Example 58, 5-(7-Methyl-1H-indazol-5-yl)-6-(pyridin-3-yl)-2-(trifluoromethyl)-[1,2,4]triazolo[1,5-a]pyridine]: the IC50 was 0.794 nM. Same read-out and setting: the same measure for `Cc1cc(C(F)(F)F)c(-c2cc(C#N)c3c(c2)CC(=O)N3)n2nc(C(F)(F)F)nc12` [Example 108, 5-(8-Methyl-2,6-bis(trifluoromethyl)-[1,2,4]triazolo[1,5-a]pyridin-5-yl)-2-oxoindoline-7-carbonitrile]: 3.98 nM.
